# Results taken from US20260077018A1, “TREATMENT OF MILD TRAUMATIC BRAIN INJURY” (OXEIA BIOPHARMACEUTICALS, INC., priority 2022, published 2026).
# No end group written: not given here. *: point of attachment. Octanoyl = CCCCCCCC(=O)*
# System: persistently symptomatic concussion patients
# Assay: Phase 2 study of OXE-103 in persistently symptomatic concussion: PCSS symptom scoring
# Format: in vivo, human
# Settings: for PCSS symptom balance_problems / PCSS symptom difficulty_concentrating / PCSS symptom difficulty_remembering / PCSS symptom dizziness / PCSS symptom drowsiness / PCSS symptom fatigue / PCSS symptom feeling_in_a_fog / PCSS symptom feeling_more_emotional / PCSS symptom feeling_slowed_down / PCSS symptom headache / PCSS symptom irritability / PCSS symptom nausea / PCSS symptom neck_pain / PCSS symptom nervous_anxious / PCSS symptom numbness_or_tingling / PCSS symptom sadness / PCSS symptom sensitivity_to_light / PCSS symptom sensitivity_to_noise / PCSS symptom sleeping_less_than_usual / PCSS symptom sleeping_more_than_usual / PCSS symptom trouble_falling_asleep / PCSS symptom visual_problems / PCSS symptom vomiting: OXE-103 Treated, aggregated; for 20% Responders - PCSS: Number of Responders / 20% Responders - PCSS: Responder % / 30% Responders - PCSS: Number of Responders / 30% Responders - PCSS: Responder %: Treated, 13 subjects
# Text: Describe the change in symptom burden in sub-acute concussion for the two groups. A maximum of 50 subjects are enrolled, but recruiting stops if each arm has 20 participants, diagnosed with persistent concussion symptoms 28 days post injury who complete the study. Patients are randomized 1:1 to placebo versus OXE-103. The Post-Concussion Symptom Score questionnaire (PCSS) is used as an overall measure of symptom burden. The number of symptoms and severity at each time point are also measures of interest. In addition, subjects are asked to identify and rank the 4 most bothersome symptoms. Without being bound by theory, it is hypothesized that changes in these most bothersome symptoms have a higher correlation to improvement in quality of life. A visual comparison of change in the two groups is made. A change of 20% is considered to be clinically meaningful. This primary aim describes the change in symptoms between day 1 and day 14.
# Described herein is a randomized, double-blind, placebo-controlled design where 40 subjects will be randomized to either a placebo cohort or a treatment with OXE-103 cohort. We randomize using the RedCap database. The database is set up to share randomization allocation only with the investigational pharmacy. All subjects are consented and begin the screening period within 28 days post-injury. There is a 7-day screening period prior to randomization and commencement of study treatment to allow for assessment of stability of symptom burden. This screening period must start no later than 28 days post-injury. Starting with Day 1 (end of screening period), the treatment cohort receives OXE-103 40ug/kg SC twice daily by self-injection and the placebo group receives a placebo injection SC twice daily. Study drug and placebo are maintained and dispensed by Investigational Pharmacy. Subjects receive an 8-day supply of syringes pre-loaded with OXE-103 or placebo. Each cohort receives the 2nd set of syringes with OXE-103 or placebo at the day 7 visit. No therapies other than OXE-103 are administered during the 14-day treatment period to either cohort. After completion of 14 days of either placebo or OXE-103 treatment, starting with the Day 14 visit, other medications and therapies can be initiated for either cohort as needed.
# Symptom reduction (AIM 1): Our primary goal is to describe the change in number of symptoms and/or severity in sub-acute concussion with treatment with OXE-103 using the PCSS at days 1 and 15. We will also collect data at days 21 and 44 to potentially describe long term changes and potential lasting effect (AIM 4).
# Subjects complete the PCSS at the following timepoints[17]: upon signing consent (score must 20) (day −7), mid-way through the screening period (day −3), prior to assignment of a treatment cohort (score must 20) (day 1), as well as days 4, 8, 11, 15, 21 and 44. Subjects are instructed to record their symptoms at the same time of day for each assessment timepoint. There can be a two-hour window either way. (e.g. 12 PM+/−2 hrs.) The PCSS is recorded via a RedCap survey. The PCSS is a self-reported assessment of 22 symptoms using a Likert-type scale ranging from 0-6, with 0 indicating no difficulty with the outlined symptom and ratings of 1-6 representing mild-to-severe difficulty with the symptom. The reliability and validity of the PCSS are well documented We also ask subjects to rank their 4 most burdensome symptoms (4MBS) at Day 1 and we analyze these separately. As stated in the Specific Aims the purpose of this study is to collect data that would further refine clinical endpoints that could be used for larger Phase 2 studies and possibly lead to the establishment of pivotal endpoints for Phase 3 registration trials. The 22 symptom PCSS assessment is designed to cover the full spectrum of concussion related symptoms across cognitive, emotional and somatic domains. In that regard the PCSS is particularly useful for diagnosis and monitoring recovery of patients post injury. […]
substance,measurement,setting,value
"ghrelin (GSS(Octanoyl)FLSPEHQRVQQRKESKKPPAKLQPR; UniProt Q9UBU3 24-51, looked up) [OXE-103, naturally occurring peptide comprising 28 amino acids that include an N-octanoyl group at the 3-position of serine]",PCSS symptom balance_problems,Day 1,30
same,PCSS symptom difficulty_concentrating,Day 1,46
same,PCSS symptom difficulty_remembering,Day 1,48
same,PCSS symptom dizziness,Day 1,37
same,PCSS symptom drowsiness,Day 1,38
same,PCSS symptom fatigue,Day 1,43
same,PCSS symptom feeling_in_a_fog,Day 1,46
same,PCSS symptom feeling_more_emotional,Day 1,31
same,PCSS symptom feeling_slowed_down,Day 1,46
same,PCSS symptom headache,Day 1,37
same,PCSS symptom irritability,Day 1,35
same,PCSS symptom nausea,Day 1,18
same,PCSS symptom neck_pain,Day 1,38
same,PCSS symptom nervous_anxious,Day 1,35
same,PCSS symptom numbness_or_tingling,Day 1,16
same,PCSS symptom sadness,Day 1,28
same,PCSS symptom sensitivity_to_light,Day 1,35
same,PCSS symptom sensitivity_to_noise,Day 1,36
same,PCSS symptom sleeping_less_than_usual,Day 1,15
same,PCSS symptom sleeping_more_than_usual,Day 1,24
same,PCSS symptom trouble_falling_asleep,Day 1,37
same,PCSS symptom visual_problems,Day 1,30
same,PCSS symptom vomiting,Day 1,2
same,20% Responders - PCSS: Number of Responders,Day 1,0
same,20% Responders - PCSS: Responder %,Day 1,0%
same,30% Responders - PCSS: Number of Responders,Day 1,0
same,30% Responders - PCSS: Responder %,Day 1,0%
same,PCSS symptom balance_problems,Day 4,25
same,PCSS symptom difficulty_concentrating,Day 4,37
same,PCSS symptom difficulty_remembering,Day 4,35
same,PCSS symptom dizziness,Day 4,35
same,PCSS symptom drowsiness,Day 4,39
same,PCSS symptom fatigue,Day 4,44
same,PCSS symptom feeling_in_a_fog,Day 4,30
same,PCSS symptom feeling_more_emotional,Day 4,24
same,PCSS symptom feeling_slowed_down,Day 4,33
same,PCSS symptom headache,Day 4,29
same,PCSS symptom irritability,Day 4,30
same,PCSS symptom nausea,Day 4,11
same,PCSS symptom neck_pain,Day 4,29
same,PCSS symptom nervous_anxious,Day 4,25
same,PCSS symptom numbness_or_tingling,Day 4,6
same,PCSS symptom sadness,Day 4,17
same,PCSS symptom sensitivity_to_light,Day 4,25
same,PCSS symptom sensitivity_to_noise,Day 4,26
same,PCSS symptom sleeping_less_than_usual,Day 4,23
same,PCSS symptom sleeping_more_than_usual,Day 4,32
same,PCSS symptom trouble_falling_asleep,Day 4,32
same,PCSS symptom visual_problems,Day 4,18
same,PCSS symptom vomiting,Day 4,1
same,20% Responders - PCSS: Number of Responders,Day 4,4
same,20% Responders - PCSS: Responder %,Day 4,31%
same,30% Responders - PCSS: Number of Responders,Day 4,3
same,30% Responders - PCSS: Responder %,Day 4,23%
same,PCSS symptom balance_problems,Day 8,30
same,PCSS symptom difficulty_concentrating,Day 8,41
same,PCSS symptom difficulty_remembering,Day 8,35
same,PCSS symptom dizziness,Day 8,28
same,PCSS symptom drowsiness,Day 8,41
same,PCSS symptom fatigue,Day 8,45
same,PCSS symptom feeling_in_a_fog,Day 8,34
same,PCSS symptom feeling_more_emotional,Day 8,33
same,PCSS symptom feeling_slowed_down,Day 8,36
same,PCSS symptom headache,Day 8,34
same,PCSS symptom irritability,Day 8,36
same,PCSS symptom nausea,Day 8,15
same,PCSS symptom neck_pain,Day 8,26
same,PCSS symptom nervous_anxious,Day 8,34
same,PCSS symptom numbness_or_tingling,Day 8,12
same,PCSS symptom sadness,Day 8,32
same,PCSS symptom sensitivity_to_light,Day 8,20
same,PCSS symptom sensitivity_to_noise,Day 8,23
same,PCSS symptom sleeping_less_than_usual,Day 8,32
same,PCSS symptom sleeping_more_than_usual,Day 8,20
same,PCSS symptom trouble_falling_asleep,Day 8,32
same,PCSS symptom visual_problems,Day 8,23
same,PCSS symptom vomiting,Day 8,1
same,20% Responders - PCSS: Number of Responders,Day 8,3
same,20% Responders - PCSS: Responder %,Day 8,23%
same,30% Responders - PCSS: Number of Responders,Day 8,2
same,30% Responders - PCSS: Responder %,Day 8,15%
same,PCSS symptom balance_problems,Day 11,24
same,PCSS symptom difficulty_concentrating,Day 11,23
same,PCSS symptom difficulty_remembering,Day 11,28
same,PCSS symptom dizziness,Day 11,18
same,PCSS symptom drowsiness,Day 11,33
same,PCSS symptom fatigue,Day 11,36
same,PCSS symptom feeling_in_a_fog,Day 11,23
same,PCSS symptom feeling_more_emotional,Day 11,20
same,PCSS symptom feeling_slowed_down,Day 11,27
same,PCSS symptom headache,Day 11,21
same,PCSS symptom irritability,Day 11,28
same,PCSS symptom nausea,Day 11,10
same,PCSS symptom neck_pain,Day 11,18
same,PCSS symptom nervous_anxious,Day 11,19
same,PCSS symptom numbness_or_tingling,Day 11,5
same,PCSS symptom sadness,Day 11,22
same,PCSS symptom sensitivity_to_light,Day 11,18
same,PCSS symptom sensitivity_to_noise,Day 11,19
same,PCSS symptom sleeping_less_than_usual,Day 11,15
same,PCSS symptom sleeping_more_than_usual,Day 11,19
same,PCSS symptom trouble_falling_asleep,Day 11,21
same,PCSS symptom visual_problems,Day 11,12
same,PCSS symptom vomiting,Day 11,1
same,20% Responders - PCSS: Number of Responders,Day 11,9
same,20% Responders - PCSS: Responder %,Day 11,69%
